Test results from patent US20230146870A1, “METHOD TO QUANTIFY AFFINITY AND SELECTIVITY OF SMALL MOLECULES FOR PROTEINS IN LIVING CELLS” (Ohio State Innovation Foundation, priority 2021, published 2023).

How the values were obtained:
[1] = molecular target: T1, native (untagged) murine PKCδ (Mus musculus, UniProt P28867); experiment: FPCBA competition with probe 1, native PKCδ in HEK293 cells; type: binding; details: read-out: Cellular Ki for native PKCδ (95% confidence interval); probe 1 400 nM, BIM1 2 μM, 2 h at 37° C.
T1 construct: For coexpression of full-length unmodified PKC proteins with mVenus as an independent marker; expressed in transfected cells; host or cells: HEK293 (transient, pIRES-mVenus)

[2] = molecular target: PKCβI (Homo sapiens, UniProt P05771); details: radiolabeled PDBu at 4° C.; read-out: Biochemical Ki, PKCβI; cited from earlier work
[3] = molecular target: PKCε (Homo sapiens, UniProt Q02156); details: radiolabeled PDBu at 4° C.; read-out: Biochemical Ki, PKCε; cited from earlier work
[4] = molecular target: T2, native (untagged) murine PKCζ (Mus musculus, UniProt Q02956); experiment: FPCBA competition with probe 1, native PKCζ in HEK293 cells; type: binding; parameters: expressed in transfected cells; host or cells: HEK293 (ATCC CRL-1573), transient transfection with pIRES-mVenus carrying the PKC gene; details: probe 1 400 nM, BIM1 2 μM, 2 h at 37° C.
T2 sequence (Q02956 1-592): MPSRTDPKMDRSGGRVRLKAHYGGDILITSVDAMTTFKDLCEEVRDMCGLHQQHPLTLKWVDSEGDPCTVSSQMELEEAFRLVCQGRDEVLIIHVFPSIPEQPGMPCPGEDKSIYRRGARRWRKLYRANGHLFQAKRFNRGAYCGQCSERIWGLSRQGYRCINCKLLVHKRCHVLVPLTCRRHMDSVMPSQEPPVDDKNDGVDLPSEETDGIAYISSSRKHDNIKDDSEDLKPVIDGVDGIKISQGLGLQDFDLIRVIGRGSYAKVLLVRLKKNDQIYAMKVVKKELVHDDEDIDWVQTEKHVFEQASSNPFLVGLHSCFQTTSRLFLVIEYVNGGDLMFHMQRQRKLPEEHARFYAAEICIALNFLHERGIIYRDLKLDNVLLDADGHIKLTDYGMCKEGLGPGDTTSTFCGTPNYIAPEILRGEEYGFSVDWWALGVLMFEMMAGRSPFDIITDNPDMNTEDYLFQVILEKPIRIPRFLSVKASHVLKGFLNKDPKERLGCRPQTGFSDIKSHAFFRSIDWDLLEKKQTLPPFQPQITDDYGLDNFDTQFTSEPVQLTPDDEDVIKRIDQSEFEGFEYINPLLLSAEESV

[5] = molecular target: native (untagged) murine PKCη (Mus musculus, UniProt P23298); experiment: FPCBA competition with probe 1, native PKCη in HEK293 cells; type: binding; parameters: expressed in transfected cells; host or cells: HEK293 (ATCC CRL-1573), transient transfection with pIRES-mVenus carrying the PKC gene; details: read-out: Cellular Ki for native PKCη (95% confidence interval); probe 1 400 nM, BIM1 2 μM, 2 h at 37° C.
[6] = molecular target: native (untagged) murine PKCα (Mus musculus, UniProt P20444); experiment: FPCBA competition with probe 1, native PKCα in HEK293 cells; type: binding; parameters: For coexpression of full-length unmodified PKC proteins with mVenus as an independent marker; expressed in transfected cells; host or cells: HEK293 (transient, pIRES-mVenus); details: read-out: Cellular Ki for native PKCα (95% confidence interval); probe 1 400 nM, BIM1 2 μM, 2 h at 37° C.
[7] = molecular target: native (untagged) murine PKCγ (Mus musculus, UniProt P63318); experiment: FPCBA competition with probe 1, native PKCγ in HEK293 cells; type: binding; parameters: For coexpression of full-length unmodified PKC proteins with mVenus as an independent marker; expressed in transfected cells; host or cells: HEK293 (transient, pIRES-mVenus); details: read-out: Cellular Ki for native PKCγ (95% confidence interval); probe 1 400 nM, BIM1 2 μM, 2 h at 37° C.
[8] = molecular target: T3, native (untagged) murine PKCε (Mus musculus, UniProt P16054); experiment: FPCBA competition with probe 1, native PKCε in HEK293 cells; type: binding; parameters: For coexpression of full-length unmodified PKC proteins with mVenus as an independent marker; expressed in transfected cells; host or cells: HEK293 (transient, pIRES-mVenus); details: read-out: Cellular Ki for native PKCε (95% confidence interval); probe 1 400 nM, BIM1 2 μM, 2 h at 37° C.
T3 sequence (P16054 1-737): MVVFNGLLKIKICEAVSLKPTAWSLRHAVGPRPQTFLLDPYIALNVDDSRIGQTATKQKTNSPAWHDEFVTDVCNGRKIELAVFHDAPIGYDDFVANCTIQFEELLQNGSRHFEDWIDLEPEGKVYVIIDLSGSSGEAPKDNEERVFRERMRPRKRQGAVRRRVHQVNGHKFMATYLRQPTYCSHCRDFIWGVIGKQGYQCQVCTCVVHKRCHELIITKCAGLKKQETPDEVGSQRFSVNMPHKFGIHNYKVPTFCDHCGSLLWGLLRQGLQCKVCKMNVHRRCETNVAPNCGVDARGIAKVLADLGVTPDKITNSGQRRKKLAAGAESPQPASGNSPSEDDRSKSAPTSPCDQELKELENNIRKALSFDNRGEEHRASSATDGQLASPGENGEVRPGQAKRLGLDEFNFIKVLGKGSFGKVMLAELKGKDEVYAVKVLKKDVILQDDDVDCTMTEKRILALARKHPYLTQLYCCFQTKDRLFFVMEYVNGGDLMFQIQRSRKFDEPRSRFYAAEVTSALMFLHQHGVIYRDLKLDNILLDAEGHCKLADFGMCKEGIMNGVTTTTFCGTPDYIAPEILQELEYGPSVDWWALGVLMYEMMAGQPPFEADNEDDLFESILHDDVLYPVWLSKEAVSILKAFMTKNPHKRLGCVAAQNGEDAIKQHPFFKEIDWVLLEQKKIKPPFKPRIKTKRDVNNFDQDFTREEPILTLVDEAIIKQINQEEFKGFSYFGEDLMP

T1 sequence (P28867 whole entry): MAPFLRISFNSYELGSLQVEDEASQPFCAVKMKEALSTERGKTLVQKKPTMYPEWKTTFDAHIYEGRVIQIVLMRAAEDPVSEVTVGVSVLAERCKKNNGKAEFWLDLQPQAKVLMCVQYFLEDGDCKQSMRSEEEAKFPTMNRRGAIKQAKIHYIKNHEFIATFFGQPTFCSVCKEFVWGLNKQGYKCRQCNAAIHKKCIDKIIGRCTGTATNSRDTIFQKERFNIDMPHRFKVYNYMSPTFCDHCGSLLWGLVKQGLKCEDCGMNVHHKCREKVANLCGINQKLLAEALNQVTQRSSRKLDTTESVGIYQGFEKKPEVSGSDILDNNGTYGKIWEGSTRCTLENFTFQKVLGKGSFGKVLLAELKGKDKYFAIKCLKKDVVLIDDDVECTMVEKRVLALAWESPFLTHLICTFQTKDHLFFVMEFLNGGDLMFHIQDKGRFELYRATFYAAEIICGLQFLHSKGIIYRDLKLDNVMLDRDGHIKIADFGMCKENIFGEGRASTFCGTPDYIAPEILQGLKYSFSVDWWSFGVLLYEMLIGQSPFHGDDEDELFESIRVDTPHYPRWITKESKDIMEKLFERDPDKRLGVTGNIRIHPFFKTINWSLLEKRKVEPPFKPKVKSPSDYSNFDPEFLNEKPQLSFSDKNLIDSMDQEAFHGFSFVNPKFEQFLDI
Sequence of PKCε (Q02156 whole entry): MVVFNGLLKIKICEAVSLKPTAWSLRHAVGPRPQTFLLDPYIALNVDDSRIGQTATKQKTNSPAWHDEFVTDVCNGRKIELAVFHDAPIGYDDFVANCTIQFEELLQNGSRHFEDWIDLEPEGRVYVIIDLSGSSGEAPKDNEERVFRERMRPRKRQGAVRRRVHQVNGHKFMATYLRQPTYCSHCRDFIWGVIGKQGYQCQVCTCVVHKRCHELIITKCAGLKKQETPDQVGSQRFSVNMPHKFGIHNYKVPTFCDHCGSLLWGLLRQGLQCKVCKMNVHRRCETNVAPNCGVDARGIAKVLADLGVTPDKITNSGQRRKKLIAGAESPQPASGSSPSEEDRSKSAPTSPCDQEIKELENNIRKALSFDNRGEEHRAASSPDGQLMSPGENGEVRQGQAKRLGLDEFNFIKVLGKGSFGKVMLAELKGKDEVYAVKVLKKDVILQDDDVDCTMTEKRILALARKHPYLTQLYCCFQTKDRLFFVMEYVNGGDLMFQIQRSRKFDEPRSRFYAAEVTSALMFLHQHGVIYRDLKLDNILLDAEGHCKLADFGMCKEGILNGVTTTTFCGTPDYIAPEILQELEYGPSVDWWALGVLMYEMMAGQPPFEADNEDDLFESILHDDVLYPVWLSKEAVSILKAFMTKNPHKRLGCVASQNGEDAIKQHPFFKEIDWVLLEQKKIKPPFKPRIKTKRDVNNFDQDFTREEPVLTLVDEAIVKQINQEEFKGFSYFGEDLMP
Sequence of PKCβI (P05771 whole entry): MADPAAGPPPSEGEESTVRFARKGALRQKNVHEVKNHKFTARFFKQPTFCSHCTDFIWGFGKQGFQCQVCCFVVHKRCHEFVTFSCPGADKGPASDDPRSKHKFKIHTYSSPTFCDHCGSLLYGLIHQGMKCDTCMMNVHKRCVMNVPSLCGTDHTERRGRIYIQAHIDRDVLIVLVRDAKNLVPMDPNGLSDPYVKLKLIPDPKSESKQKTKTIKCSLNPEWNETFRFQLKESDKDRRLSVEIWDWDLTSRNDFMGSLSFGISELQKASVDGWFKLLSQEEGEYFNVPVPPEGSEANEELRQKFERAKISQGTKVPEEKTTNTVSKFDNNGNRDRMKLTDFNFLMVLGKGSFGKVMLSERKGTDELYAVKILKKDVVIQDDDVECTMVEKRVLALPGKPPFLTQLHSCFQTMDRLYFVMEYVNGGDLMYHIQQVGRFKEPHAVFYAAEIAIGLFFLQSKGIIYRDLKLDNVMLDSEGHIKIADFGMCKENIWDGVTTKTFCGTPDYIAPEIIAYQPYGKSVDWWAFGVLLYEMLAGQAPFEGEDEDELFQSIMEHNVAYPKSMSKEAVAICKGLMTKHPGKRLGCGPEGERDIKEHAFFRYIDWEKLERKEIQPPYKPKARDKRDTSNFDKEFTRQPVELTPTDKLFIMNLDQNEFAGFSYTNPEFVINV
Sequence of native (untagged) murine PKCη (P23298 whole entry): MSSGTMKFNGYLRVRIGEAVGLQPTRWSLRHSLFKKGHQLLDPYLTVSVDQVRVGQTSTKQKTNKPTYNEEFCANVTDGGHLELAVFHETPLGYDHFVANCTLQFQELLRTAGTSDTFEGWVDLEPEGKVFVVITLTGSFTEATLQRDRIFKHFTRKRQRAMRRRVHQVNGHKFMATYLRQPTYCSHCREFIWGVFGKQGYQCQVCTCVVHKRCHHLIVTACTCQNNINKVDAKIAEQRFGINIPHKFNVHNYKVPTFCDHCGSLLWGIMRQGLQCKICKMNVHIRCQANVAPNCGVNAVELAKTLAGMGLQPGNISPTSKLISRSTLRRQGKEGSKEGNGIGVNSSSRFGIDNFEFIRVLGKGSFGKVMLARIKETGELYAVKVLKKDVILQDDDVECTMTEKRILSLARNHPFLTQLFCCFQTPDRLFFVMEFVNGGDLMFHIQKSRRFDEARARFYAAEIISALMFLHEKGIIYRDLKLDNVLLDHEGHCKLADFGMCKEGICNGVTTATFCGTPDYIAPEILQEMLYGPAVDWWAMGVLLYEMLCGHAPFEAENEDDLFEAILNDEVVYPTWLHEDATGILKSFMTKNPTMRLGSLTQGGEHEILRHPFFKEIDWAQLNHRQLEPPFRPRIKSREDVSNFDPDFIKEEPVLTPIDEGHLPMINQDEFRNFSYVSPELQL

## CCC/C=C/C=C/C(=O)O[C@H]1/C(=C/C(=O)OC)C[C@H]2C[C@H]([C@@H](C)O)OC(=O)C[C@H](O)C[C@@H]3C[C@H](OC(C)=O)C(C)(C)[C@](O)(C[C@@H]4C/C(=C/C(=O)OC)C[C@H](/C=C/C(C)(C)[C@]1(O)O2)O4)O3 [bryostatin 1]
[1]
  Ki: 20 nM
[2]
  Ki: 2.2 nM
[3]
  Ki: 3 nM
[4]
  Cellular Ki for native PKCζ: No binding
[5]
  Ki: 9 nM
[6]
  Ki: 3 nM
[7]
  Ki: 8 nM
[8]
  Ki: 16 nM
